Test results reported in US20030027745A1, “Diagnostic and prognostic method for evaluating ocular inflammation and oxidative stress and the treatment of the same” (priority 2001, published 2003).

Key:
[1] = test system: drusen; assay: Number of drusen in an ARMD patient following NAC treatment; assay type: in vivo; details: FIG. 2
[2] = test system: reduced blood glutathione (GSH); assay: Blood glutathione (GSH) levels in an ARMD patient before and after NAC treatment; assay type: in vivo; details: ARMD patient taking NAC compared to the same patient before taking NAC, FIG. 1
Source text: FIG. 1 is a chart showing the decreased reduced blood glutathione (GSH) levels in an Age-Related Macular Degeneration patient, prior to and following treatment of the patient with N-acetylcysteine (NAC).
It is known that GSH levels decrease in cells that are exposed to oxidative stress and inflammation. Decreases in GSH lead to even further increased oxidative stresses. […] Since it shown that patients with ARMD, as opposed to the control subjects, have decreased levels of GSH and that the levels of GSH increased following NAC treatment, alterations in GSH, GSSG and other factors when analyzed alone or in combination, can be used to help identify ARMD and other patients who have increased ocular oxidative stress and/or inflammation. For example, these responses may occur in the eye of ARMD or other patients as the disease progresses from its dry to wet forms or from less serious to more serious wet forms. Consequently, measurements of these factors could provide a way of diagnosing and following the progression of ARMD or other conditions in patients, especially when the measurements are made sequentially and compared repeatedly in the same individual.
A second aspect of the invention is that the effectiveness of treatments that alter oxidative stress can be assessed by the measurement, especially sequential measurement, of blood factors. […]

## CC(=O)N[C@@H](CS)C(=O)O [NAC, N-acetylcysteine]
[1]
  drusen (number of drusens, a retinal abnormality): decreased
[2]
  GSH levels: increased
